Measurements taken from patent US7868005B2, “Pyrazinyl substituted piperazine-piperidines with CXCR3 antagonist activity” (Schering Corporation, priority 2005, dated 2011).

target: T1, human CXCR3 (N-delta 4) (Homo sapiens, UniProt P49682); assay: Human CXCR3 (N-delta 4) Scintillation Proximity Assay (SPA), [125I] IP-10 binding to Ba/F3-hCXCR3 membranes; details: IC50 rating, Table 1; read-out: IC50
T1 construct: CD8 leader (N); Flag; expressed in transfected cells; membranes prepared
T1 sequence (P49682 5-368 limits assumed): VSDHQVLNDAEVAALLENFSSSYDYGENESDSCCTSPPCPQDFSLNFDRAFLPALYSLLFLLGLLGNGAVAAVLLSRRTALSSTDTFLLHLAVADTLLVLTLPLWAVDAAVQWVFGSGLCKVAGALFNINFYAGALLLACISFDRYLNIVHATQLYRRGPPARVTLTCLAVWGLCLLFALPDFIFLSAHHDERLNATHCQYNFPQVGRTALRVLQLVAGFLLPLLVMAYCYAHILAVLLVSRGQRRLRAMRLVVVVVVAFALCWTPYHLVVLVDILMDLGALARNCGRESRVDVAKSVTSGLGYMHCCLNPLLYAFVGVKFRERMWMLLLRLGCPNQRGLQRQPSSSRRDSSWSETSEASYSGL

IC50, < 25 nM:
CC[C@H]1CN(c2nc(N)c(C(=O)NCCO)nc2Cl)CCN1C1CCN(Cc2ccc(Cl)cc2)CC1 [compound 110], CC[C@H]1CN(c2nc(N)c(C(=O)NCCO)nc2Cl)CCN1C1CCN(Cc2ccc(Cl)cc2C(=N)N)CC1 [compound 111], CC[C@H]1CN(c2nc(N)c(C(=O)NCCO)nc2Cl)CCN1C1CCN(Cc2ccc(OC(F)(F)F)cc2)CC1 [compound 112], CC[C@H]1CN(c2nc(N)c(C(=O)NCCO)nc2Cl)CCN1C1CCN(Cc2ccc(Cl)cc2F)CC1 [compound 113], CCOC(=O)/N=C(\N)c1cc(Cl)ccc1CN1CCC(N2CCN(c3nc(N)c(C(=O)NCCO)nc3Cl)C[C@@H]2CC)CC1 [compound 114], CC[C@H]1CN(c2nc(N)c(C(=O)NCCO)nc2Cl)CCN1C1CCN(Cc2ccc(Cl)cc2OCCOC)CC1 [compound 115], CC[C@H]1CN(c2nc(N)c(C(=O)NCCO)nc2Cl)CCN1C1CCN([C@@H](CO)c2ccc(C#N)cc2)CC1 [compound 116], CC[C@H]1CN(c2nc(N)c(C(=O)NCCO)nc2Cl)CCN1C1CCN(Cc2ccc(C(=O)OC)cc2)CC1 [compound 117], CC[C@H]1CN(c2nc(N)c(C(=O)NCCO)nc2Cl)CCN1C1CCN(Cc2ccc(OC(F)(F)F)cc2OCCOC)CC1 [compound 118], CC[C@H]1CN(c2nc(N)c(C(=O)NCCO)nc2Cl)CCN1C1CCN(Cc2ccc(OC(F)(F)F)cc2OCCCCO)CC1 [compound 119], CC[C@H]1CN(c2nc(N)c(C(=O)NCCO)nc2Cl)CCN1C1CCN(Cc2ccc(Cl)cc2OCCNC(=O)OC(C)(C)C)CC1 [compound 120], CC[C@H]1CN(c2nc(N)c(C(=O)NCCO)nc2Cl)CCN1C1CCN(Cc2ccc(C#N)cc2)CC1 [compound 121], CC[C@H]1CN(c2nc(N)c(C(=O)NCCO)nc2Cl)CCN1C1CCN([C@@H](CO)c2ccc(F)c(F)c2)CC1 [compound 122], CC[C@H]1CN(c2nc(N)c(C(=O)NCCO)nc2Cl)CCN1C1CCN(Cc2ccc(F)c(F)c2)CC1 [compound 123], CC[C@H]1CN(c2nc(N)c(C(=O)NCCO)nc2Cl)CCN1C1CCN(Cc2ccc(Cl)cc2OCCO)CC1 [compound 124], CC[C@H]1CN(c2nc(N)c(C(=O)NCCO)nc2Cl)CCN1C1CCN(Cc2ccc(OC(F)(F)F)cc2OCCCO)CC1 [compound 125], CC[C@H]1CN(c2nc(N)c(C(=O)NCCO)nc2Cl)CCN1C1CCN(Cc2ccc(OC)cc2)CC1 [compound 126], CC[C@H]1CN(c2nc(N)c(C(=O)NCCO)nc2Cl)CCN1C1CCN(Cc2ccc(Cl)cc2C(N)=O)CC1 [compound 127], CC[C@H]1CN(c2nc(N)c(C(=O)NCCO)nc2Cl)CCN1C1CCN([C@H](CO)c2ccc(Cl)cc2)CC1 [compound 128], CC[C@H]1CN(c2nc(N)c(C(=O)NCCO)nc2Cl)CCN1C1CCN(Cc2ccc(Cl)cc2OCCNC(=O)C(C)(C)C)CC1 [compound 129], CC[C@H]1CN(c2nc(N)c(C(=O)NCCO)nc2Cl)CCN1C1CCN(Cc2ccc(Cl)cc2OCCNS(C)(=O)=O)CC1 [compound 130], CC[C@H]1CN(c2nc(N)c(C(=O)NCCO)nc2Cl)CCN1C1CCN(Cc2ccc(Cl)cc2OCCNC(=O)NC2CCCCC2)CC1 [compound 131], CC[C@H]1CN(c2nc(N)c(C(=O)NCCO)nc2Cl)CCN1C1CCN(Cc2ccc(Cl)cc2OCCNS(=O)(=O)C(F)(F)F)CC1 [compound 132], CC[C@H]1CN(c2nc(N)c(C(=O)NCCO)nc2Cl)CCN1C1CCN(Cc2ccc(F)cc2)CC1 [compound 133], CC[C@H]1CN(c2nc(N)c(C(=O)NCCO)nc2Cl)CCN1C1CCN(Cc2ccc(Cl)cc2OCCNS(N)(=O)=O)CC1 [compound 134], CC[C@H]1CN(c2nc(N)c(C(=O)NCCO)nc2Cl)CCN1C1CCN(Cc2ccc(F)c(F)c2N2CC[C@@H](O)C2)CC1 [compound 135], CC[C@H]1CN(c2nc(N)c(C(=O)NCCO)nc2Cl)CCN1C1CCN(Cc2ccc(Cl)cc2C#N)CC1 [compound 136], CC[C@H]1CN(c2nc(N)c(C(=O)NCCO)nc2Cl)CCN1C1CCN(Cc2ccc(Cl)cc2OCCNC(=O)NC(C)(C)C)CC1 [compound 137], CC[C@H]1CN(c2nc(N)c(C(=O)NCCO)nc2Cl)CCN1C1CCN(Cc2ccc(Cl)cc2O)CC1 [compound 138], CC[C@H]1CN(c2nc(N)c(C(=O)NCCO)nc2Cl)CCN1C1CCN(Cc2cc(F)c(Cl)cc2OCCCO)CC1 [compound 139], CC[C@H]1CN(c2nc(N)c(C(=O)NCCO)nc2Cl)CCN1C1CCN(Cc2ccc(-c3ccc(F)cc3)cc2)CC1 [compound 140], CC[C@H]1CN(c2nc(N)c(C(=O)NCCO)nc2Cl)CCN1C1CCN(Cc2ccc(Cl)cc2N2CC[C@@H](O)C2)CC1 [compound 141], CC[C@H]1CN(c2nc(N)c(C(=O)NCCO)nc2Cl)CCN1C1CCN(Cc2ccc(Cl)cc2C(=O)OC)CC1 [compound 142], CC[C@H]1CN(c2nc(N)c(C(=O)NCCO)nc2Cl)CCN1C1CCN(Cc2cc(F)c(Cl)cc2OCCOC)CC1 [compound 143], CC[C@H]1CN(c2nc(N)c(C(=O)NCCO)nc2Cl)CCN1C1CCN(Cc2ccc(C#CC(C)(C)O)cc2)CC1 [compound 144], CC[C@H]1CN(c2nc(N)c(C(=O)NCCO)nc2Cl)CCN1C1CCN(Cc2ccc(Cl)cc2C(C)(C)O)CC1 [compound 145], CC[C@H]1CN(c2nc(N)c(C(=O)NCCO)nc2Cl)CCN1C1CCN(Cc2ccc(C#N)cc2OCC(=O)NCCO)CC1 [compound 146], CC[C@H]1CN(c2nc(N)c(C(=O)NCCO)nc2Cl)CCN1C1CCN(Cc2ccc(Cl)cc2OCCNS(=O)(=O)N(C)C)CC1 [compound 147], CCNC(=O)NCCC(c1ccc(Cl)cc1)N1CCC(N2CCN(c3nc(N)c(C(=O)NCCO)nc3Cl)C[C@@H]2CC)CC1 (stereo partly drawn) [compound 148], CC[C@H]1CN(c2nc(N)c(C(=O)NCCO)nc2Cl)CCN1C1CCN(Cc2ccc(Cl)cc2OCC(N)=O)CC1 [compound 149], CC[C@H]1CN(c2nc(N)c(C(=O)NCCO)nc2Cl)CCN1C1CCN([C@@H](C(=O)OC)c2ccc(Cl)cc2)CC1 [compound 150], CC[C@H]1CN(c2nc(N)c(C(=O)NCCO)nc2Cl)CCN1C1CCN(Cc2ccc(Cl)cc2C(=N)NC)CC1 [compound 151], CC[C@H]1CN(c2nc(N)c(C(=O)NCCO)nc2Cl)CCN1C1CCN(Cc2ccc(OC)cc2O)CC1 [compound 152], CC[C@H]1CN(c2nc(N)c(C(=O)NCCO)nc2Cl)CCN1C1CCN([C@H](CO)c2ccc(C#N)cc2)CC1 [compound 153], CC[C@H]1CN(c2nc(N)c(C(=O)NCCO)nc2Cl)CCN1C1CCN(Cc2ccc(-c3csnn3)cc2)CC1 [compound 154], CC[C@H]1CN(c2nc(N)c(C(=O)NCCO)nc2Cl)CCN1C1CCN(Cc2ccc(Cl)c(F)c2O)CC1 [compound 155], CC[C@H]1CN(c2nc(N)c(C(=O)NCCO)nc2Cl)CCN1C1CCN(Cc2ccc(Cl)cc2NC(N)=O)CC1 [compound 156], CCNC(=O)Nc1cc(Cl)ccc1CN1CCC(N2CCN(c3nc(N)c(C(=O)NCCO)nc3Cl)C[C@@H]2CC)CC1 [compound 157], CC[C@H]1CN(c2nc(N)c(C(=O)NCCO)nc2Cl)CCN1C1CCN(Cc2ccc(F)cc2F)CC1 [compound 158], CC[C@H]1CN(c2nc(N)c(C(=O)NCCO)nc2Cl)CCN1C1CCN(Cc2cc(F)c(Cl)cc2O)CC1 [compound 159], CC[C@H]1CN(c2nc(N)c(C(=O)NCCO)nc2Cl)CCN1C1CCN(Cc2ccc(Cl)cc2C(=O)NC)CC1 [compound 160], CC[C@H]1CN(c2nc(N)c(C(=O)NCCO)nc2Cl)CCN1C1CCN(Cc2ccc(Cl)cc2-c2nnn[nH]2)CC1 [compound 161], CC[C@H]1CN(c2nc(N)c(C(=O)NCCO)nc2Cl)CCN1C1CCN(Cc2ccc(Oc3ccc(F)cc3)cc2)CC1 [compound 162], CC[C@H]1CN(c2nc(N)c(C(=O)NCCO)nc2Cl)CCN1C1CCN(Cc2ccc(C#N)cc2OCCOC)CC1 [compound 163], CC[C@H]1CN(c2nc(N)c(C(=O)NCCO)nc2Cl)CCN1C1CCN(Cc2ccc(Cl)cc2C(=O)O)CC1 [compound 164], CC[C@H]1CN(c2nc(N)c(C(=O)NCCO)nc2Cl)CCN1C1CCN(Cc2cc(F)c(Cl)cc2OCCNS(C)(=O)=O)CC1 [compound 165], CC[C@H]1CN(c2nc(N)c(C(=O)NCCO)nc2Cl)CCN1C1CCN(Cc2ccc(OC(F)(F)F)cc2O)CC1 [compound 166]
